Results taken from patent US20220256847A1, “CELL DEATH INHIBITOR AND CELL DEATH INHIBITION METHOD” (UNIVERSITY OF TSUKUBA, priority 2019, published 2022).

Key:
Format in all cases: in vivo
[1] = test system: leaves of Nicotiana benthamiana; assay: Observation of gangrene (cell death induced by transient protein expression) in leaves after agroinfiltration and spraying of the substance
Protocol: Nicotiana benthamiana was grown for 5 to 6 weeks under conditions of 25° C. and 16 hours in light and 8 hours in the dark. Each of the above-described vectors was introduced into an Agrobacterium tumefaciens GV3101 strain having a binary vector, and it was cultured at 28° C. until the stationary phase in L broth medium supplemented with 20 μM acetosyringone, 50 mg/L kanamycin, 30 mg/L gentamicin, and 30 mg/L rifampicin at 10 mM MES (pH 5.6).
Then, the culture solution was centrifuged to recover the Agrobacterium tumefaciens, and then suspended such that OD600 was approximately 1 by using an infiltration buffer (10 mM magnesium chloride, 10 mM MES, (pH 5.6), and 100 μM acetosyringone). The Agrobacterium tumefaciens was then left in this liquid for 2 to 3 hours.
After this, the suspension of Agrobacterium tumefaciens was infiltrated on the underside of the leaves of Nicotiana benthamiana by using a 1 mL syringe without a needle. Alternatively, in some cases, Nicotiana benthamiana was immersed in the Agrobacterium suspension (agroinfiltration liquid), and vacuum infiltrated by leaving it under a pressure of 736 mmHg for 5 minutes, and then bringing the pressure back to atmospheric pressure.
In addition, in some experiments, sodium ascorbate was added to the infiltration buffer. Expression induction of heat shock protein was performed by incubating the plant for 1 hour at 37° C. one day and three days after the infiltration. In the following Example, sodium L-ascorbate was used as sodium ascorbate.
Agroinfiltration using a syringe was performed to express GFP, hCu1, hFbxw7, PLP-GFP, and Cryj1 in the leaves of Nicotiana benthamiana. In the expression of PLP-GFP, a 1/100 amount of pBYR2HS-EGFP was simultaneously agroinfitrated. Each plant was cultured at 18° C. for seven days after agroinfiltration. In addition, 0, 30, 50, 100, 200, and 300 mM aqueous solutions of sodium ascorbate were sprayed once every two days.
The scale bar indicates 1 cm. […] In (a) to (f), the region surrounded by the dotted circle is a region expressing GFP, hCu1, hFbxw7, PLP-GFP, and Cryj1, respectively.
Agroinfiltration using a syringe was performed to express each of GFP, hCu1, and hFbxw7 in the leaves of Nicotiana benthamiana. Each plant was cultured at 25° C. for seven days after agroinfiltration. In addition, a 0 or 200 mM aqueous solution of sodium ascorbate was sprayed once every two days. The present Example was mainly different from Example 1 in the growth temperatures of the plant.
The scale bar indicates 1 cm.
Each plant was cultured at 18° C. for seven days after agroinfiltration.
Specifically, Nicotiana benthamiana was immersed in the agroinfiltration liquid, and vacuum infiltrated by leaving it under a pressure of 736 mmHg for 5 minutes, and then bringing the pressure back to atmospheric pressure, and thus the hFbxw7 protein was expressed. Each plant was cultured at 20° C. for seven days after agroinfiltration. In addition, 1 mM of each endoplasmic reticulum stress inhibitor was sprayed one day and three days after agroinfiltration.

[2] = test system: GFP protein expressed in the leaves of Nicotiana benthamiana; assay: GFP protein expression level, SDS-PAGE and CBB staining of soluble leaf protein
[3] = test system: hCu1 protein expressed in the leaves of Nicotiana benthamiana; assay: hCu1 protein expression level, Western blotting with anti-FLAG antibody
Text: The soluble protein was then extracted from the region where the hCu1 protein was expressed in the leaves of each plant. The prepared soluble protein was then subjected to SDS-PAGE and transferred to a PVDF membrane. As described above, a FLAG tag was attached to the N-terminus of the hCu1 protein. Here, the hCu1 protein was detected by Western blotting with an anti-FLAG antibody.
FIG. 4A is a photograph showing the results of Western blotting. In FIG. 4A, “NT” indicates the results of the leaves of Nicotiana benthamiana without gene introduction, and “FW” indicates fresh weight. In FIG. 4A, the band indicated by the arrowhead indicates the band of the hCu1 protein. FIG. 4B is a graph showing the results of quantifying the expression level of the hCu1 protein based on FIG. 4A. […]
The soluble protein was then extracted from the leaves of each plant seven days after agroinfiltration. The prepared soluble protein was then subjected to SDS-PAGE and transferred to a PVDF membrane. As described above, a FLAG tag was attached to the N-terminus of the hCu1 protein. Here, the hCu1 protein was detected by Western blotting with an anti-FLAG antibody.
FIG. 13A is a photograph showing the results of Western blotting, and also illustrates the results of CBB staining. In FIG. 13A, “NT” indicates the results of the leaves of Nicotiana benthamiana without gene introduction, and “FW” indicates fresh weight. In addition, “vacuum” indicates the result of performing the vacuum infiltration, and “spray” indicates the result of spraying an aqueous solution of sodium ascorbate without adding sodium ascorbate to the agroinfiltration liquid. In addition, the band indicated by the arrowhead indicates the band of the hCu1 protein. In addition, “RbcL” indicates the Rubisco large subunit.
FIG. 13B is a graph showing the results of quantifying the expression level of the hCu1 protein based on FIG. 13A. In FIG. 13B, “vacuum” and “spray” indicate the same meaning as those in FIG. 13A.

[4] = test system: PLP-GFP protein expressed in the leaves of Nicotiana benthamiana; assay: PLP-GFP protein expression level, Western blotting with anti-GFP antibody; conditions: Example 1: spray, concentration of 100 mM or higher, once every two days; 18° C., seven days
Protocol: The soluble protein was then extracted from the region where the PLP-GFP protein was expressed in the leaves of each plant. The prepared soluble protein was then subjected to SDS-PAGE and transferred to a PVDF membrane. For comparison, 100 ng, 200 ng, and 300 ng of purified GFP proteins were also subjected to SDS-PAGE and transferred to a PVDF membrane. Then, the PLP-GFP protein was detected by Western blotting with an anti-GFP antibody. FIG. 5A is a photograph showing the results of Western blotting. In FIG. 5A, “NT” indicates the results of the leaves of Nicotiana benthamiana without gene introduction, and “FW” indicates fresh weight. In FIG. 5A, the band indicated by the arrowhead indicates the band of the PLP-GFP protein. In addition, the band near 30 kDa is the band of the GFP protein. FIG. 5B is a graph showing the results of quantifying an expression level of the PLP-GFP protein based on FIG. 5A.

[5] = test system: hFbxw7 protein expressed in the leaves of Nicotiana benthamiana; assay: hFbxw7 protein expression, Western blotting with anti-FLAG antibody; conditions: Example 2: 200 mM spray; 25° C.; three days after agroinfiltration
Text: The soluble protein was extracted from the region where the hFbxw7 protein was expressed in the leaves of each plant three days after agroinfiltration. The prepared soluble protein was then subjected to SDS-PAGE and transferred to a PVDF membrane. As described above, a FLAG tag was attached to the N-terminus of the hFbxw7 protein. Here, the hFbxw7 protein was detected by Western blotting with an anti-FLAG antibody. FIG. 9 is a photograph showing the results of Western blotting. FIG. 9 also illustrates the results of CBB staining. In FIG. 9, “NT” indicates the results of the leaves of Nicotiana benthamiana without gene introduction, and “FW” indicates fresh weight. In addition, “Mock” indicates the result of not spraying an aqueous solution of sodium ascorbate, and “AsA” indicates the result of spraying a 200 mM aqueous solution of sodium ascorbate. In addition, the band indicated by the arrowhead indicates the band of the hFbxw7 protein. In addition, “RbcL” indicates the Rubisco large subunit.

[6] = test system: Cryj1 protein expressed in the leaves of Nicotiana benthamiana; assay: Cryj1 protein expression, Western blotting with anti-Cryj1 antibody; conditions: Example 8: 200 mM spray once every two days; vacuum infiltration; 24° C. or 20° C., seven days
Protocol: Nicotiana benthamiana was immersed in the agroinfiltration liquid, and vacuum infiltrated by leaving it under a pressure of 736 mmHg for 5 minutes, and then by bringing the pressure back to atmospheric pressure, and thus the Cryj1 protein was expressed. Each plant was cultured at 24° C. or 20° C. for seven days after agroinfiltration. In addition, a 0 mM or 200 mM aqueous solution of sodium ascorbate was sprayed once every two days.
The soluble protein was then extracted from the leaves of each plant seven days after agroinfiltration. The prepared soluble protein was then subjected to SDS-PAGE and transferred to a PVDF membrane. Then, the Cryj1 protein was detected by Western blotting with an anti-Cryj1 antibody.
FIG. 18A is a photograph showing the results of Western blotting. In FIG. 18B, “P” indicates the result of SDS-PAGE and Western blotting of the Cryj1 protein derived from a natural product as a positive control, “M” indicates a molecular weight marker, “WT” indicates the result of the leaves of Nicotiana benthamiana without gene introduction, “24° C.” indicates the result of culturing at 24° C., “20° C.” indicates the result of culturing at 20° C., and “+AsA” indicates the result of spraying a 200 mM aqueous solution of sodium ascorbate once every two days.

Nicotiana benthamiana = assay: Observation of gangrene after adding the substance to the agroinfiltration liquid (vacuum infiltration); conditions: hCu1, 25° C., seven days
Protocol: Sodium ascorbate was added to the agroinfiltration liquid to examine whether gangrene can be inhibited. Specifically, Nicotiana benthamiana was immersed in the agroinfiltration liquid, and vacuum infiltrated by leaving it under a pressure of 736 mmHg for 5 minutes, and then bringing the pressure back to atmospheric pressure, and thus the hCu1 protein was expressed. Here, sodium ascorbate having a final concentration of 80 mM, 100 mM, or 200 mM was added to the agroinfiltration liquid. Each plant was cultured at 25° C. for seven days after agroinfiltration.
In (a) to (c), “vacuum” indicates the results of vacuum infiltration.
Sodium ascorbate was added to the agroinfiltration liquid to examine whether gangrene can be inhibited. Specifically, Nicotiana benthamiana was immersed in the agroinfiltration liquid, and vacuum infiltrated by leaving it under a pressure of 736 mmHg for 5 minutes, and then bringing the pressure back to atmospheric pressure, and thus the hCu1 protein was expressed. Here, sodium ascorbate having a final concentration of 0, 10, 20, 30, or 40 mM was added to the agroinfiltration liquid.
Sodium ascorbate was administered only once at the time of agroinfiltration. […]

[7] = Example 1: spray, concentration of 100 mM or higher, once every two days, 18° C., seven days

Row | SMILES | cell death induced by transient protein expression ([1]; Example 5: spray 30-300 mM once every two days, 18° C., seven days) | state of the leaves ([1]; Example 5: spray, concentration of 100 mM or higher, once every two days, 18° C., seven days) | gangrene (cell death induced by transient protein expression) ([1]; Example 1: sprayed with 100, 200 and 300 mM aqueous solutions once every two days, 18° C., seven days after agroinfiltration, hCu1, hFbxw7, PLP-GFP, Cryj1 regions) | gangrene ([1]; Example 2: 200 mM spray once every two days, 25° C., seven days after agroinfiltration, GFP, hCu1, hFbxw7) | gangrene in GFP-expressing leaves ([1]; Example 2: 200 mM spray, 25° C., culturing continued for seven days after agroinfiltration) | expression level of the GFP protein [2, 7] | expression level of the Rubisco large subunit [2, 7] | GFP protein expression level ([2]; Example 2: 200 mM spray, 25° C., three, five and seven days after agroinfiltration) | expression level of the hCu1 protein [3, 7] | peak in the expression level of the hCu1 protein ([3]; Example 1: spray, concentration of 200 mM or higher, 18° C., seven days) | expression of the hCu1 protein ([3]; Example 2: 200 mM spray, 25° C., seven days after agroinfiltration) | expression level of the hCu1 protein, time of peak ([3]; Example 2: 200 mM spray, 25° C., three days after agroinfiltration) | expression of the hCu1 protein ([3]; Example 4: final concentration of 40 mM added to the agroinfiltration liquid, once, vacuum infiltration, 25° C., seven days) | expression level of the PLP-GFP protein [4] | expression of the hFbxw7 protein [5] | expression of Cryj1 protein [6] | gangrene induced by the substance (Nicotiana benthamiana; Example 3: concentration of 80 mM or higher (80, 100, 200 mM) added to the agroinfiltration liquid) | gangrene of the plant (Nicotiana benthamiana; Example 4: added to the agroinfiltration liquid (0-40 mM), once)
1 | O=C([O-])CC(O)(CC(=O)[O-])C(=O)[O-].[Na+].[Na+].[Na+] [sodium citrate, reference compound] | cannot inhibit cell death induced by transient protein expression | leaves were in a wilted state |  |  |  |  |  |  |  |  |  |  |  |  |  |  |  | 
2 | O=C1O[C@H]([C@@H](O)CO)C([O-])=C1O.[Na+] [sodium ascorbate, sodium L-ascorbate] |  |  | gangrene was inhibited | tendency of gangrene suppression | tendency of gangrene reduction | increase in expression level of the GFP protein | increase in expression level of the Rubisco large subunit | GFP protein expression level sustenance | increase in expression level of the hCu1 protein | peak in the expression level of the hCu1 protein was observed | expression of the hCu1 protein was maintained even seven days after agroinfiltration | peak in the expression level of the hCu1 protein was observed three days after agroinfiltration | expression of the hCu1 protein similar to a case where a 200 mM aqueous solution of sodium ascorbate was sprayed | increase in expression level of the PLP-GFP protein | expression of the hFbxw7 protein was observed | expression of Cryj1 protein was observed | gangrene possibly caused by osmotic stress was induced | reduce gangrene of the plant
